The source of these data is ChEMBL document CHEMBL1139551, “2,3-Ethylene- and 2,3-trimethylene-bridged analogues of the group III metabotropic glutamate receptor ligand 2-amino-4-phosphonobutanoic acid” (Bioorg Med Chem Lett, 2005).

A word on the EC50: it is the concentration needed to bring the measured effect to its halfway point.

In one test the target is T1, Metabotropic glutamate receptor 4 (Homo sapiens, UniProt Q14833). Briefly: Agonistic activity towards group III Metabotropic glutamate receptor stably expressed in AV12 cells when tested up to 200 uM; NS means no significant activity. Format: functional, cell-based.
T1 sequence (Q14833 whole entry): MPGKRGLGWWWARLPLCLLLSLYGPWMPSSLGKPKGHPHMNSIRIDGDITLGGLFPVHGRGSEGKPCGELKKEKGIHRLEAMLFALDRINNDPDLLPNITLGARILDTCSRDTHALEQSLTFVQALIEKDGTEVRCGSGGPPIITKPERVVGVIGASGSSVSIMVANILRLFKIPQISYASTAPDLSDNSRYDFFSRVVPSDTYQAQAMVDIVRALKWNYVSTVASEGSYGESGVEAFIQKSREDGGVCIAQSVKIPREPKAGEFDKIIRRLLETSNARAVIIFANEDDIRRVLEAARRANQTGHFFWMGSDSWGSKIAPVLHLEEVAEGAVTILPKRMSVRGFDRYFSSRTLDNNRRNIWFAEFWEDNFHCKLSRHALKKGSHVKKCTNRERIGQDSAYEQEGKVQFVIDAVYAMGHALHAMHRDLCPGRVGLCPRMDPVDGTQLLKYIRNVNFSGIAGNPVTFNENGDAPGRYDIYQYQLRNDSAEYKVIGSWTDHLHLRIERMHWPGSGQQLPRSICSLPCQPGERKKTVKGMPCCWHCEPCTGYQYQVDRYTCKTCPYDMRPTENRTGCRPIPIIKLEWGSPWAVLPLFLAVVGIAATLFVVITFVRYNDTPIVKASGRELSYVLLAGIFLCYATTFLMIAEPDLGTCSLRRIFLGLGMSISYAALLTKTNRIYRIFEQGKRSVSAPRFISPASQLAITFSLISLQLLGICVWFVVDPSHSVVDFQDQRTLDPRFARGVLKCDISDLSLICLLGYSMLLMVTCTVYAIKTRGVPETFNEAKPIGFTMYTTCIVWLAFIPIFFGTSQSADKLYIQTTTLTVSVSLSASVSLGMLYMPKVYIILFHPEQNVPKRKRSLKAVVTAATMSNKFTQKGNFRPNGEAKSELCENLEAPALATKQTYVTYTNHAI
In the case of `NC1(C(=O)O)CCC1CP(=O)(O)O` (stereo in doubt; 5), the Activity result is “No significant activity”. Same read-out and setting: next, `NC1(C(=O)O)CCC1CP(=O)(O)O` (stereo in doubt; 6): “No significant activity”; `NC1(C(=O)O)CCCC1CP(=O)(O)O` (stereo in doubt; 7): “No significant activity”; `NC1(C(=O)O)CCCC1CP(=O)(O)O` (stereo in doubt; 8): “No significant activity”.

Another test deals with T1, Metabotropic glutamate receptor 4. Description: Effective concentration which exhibit agonistic activity at metabotropic glutamate 4 receptor stably expressed in AV12 cells. Format: functional, cell-based.
Consider `NC1(C(=O)O)CC1CP(=O)(O)O` (stereo in doubt; 3), for which a half-maximal response (EC50) required 7.9 µM. On to `NC1(C(=O)O)CC1CP(=O)(O)O` (stereo in doubt; 4), for which the EC50 came to 0.58 µM.
